In publication PMC8304761, “Development of an Androgen Receptor Inhibitor Targeting the N-Terminal Domain of Androgen Receptor for Treatment of Castration Resistant Prostate Cancer” (Cancers, 2021):
Read-outs that look alike come from different tables or passages of the source.

Columns and labels:
[1] = tested on: prostate specific antigen (PSA); experiment: Secreted PSA levels in LNCaP cells; assay type: cell-based; details: Homo sapiens, LNCaP; Table 1; read-out: PSA IC50
Source text: Next, we tested the activity of VPC-220010 against full length AR using an AR-eGFP transcription assay in LNCaP cells. […] To further validate VPC-220010 as an AR inhibitor, we evaluated its ability to reduce the production of endogenous prostate specific antigen (PSA) in PCa cell lines. PSA is an AR-regulated serine protease and is widely used as a biomarker for PCa.

Microsomal stability = assay type: in vitro ADME, human
Source text: However, further medicinal chemistry optimization is needed to make this scaffold stable enough to proceed to potential preclinical studies. […] Study of VPC-220057 scaffold could lead to a VPC-220010- and VPC-220057-derivative that combines their best potency and stability. The corresponding efforts are under way.

full-length AR = target: T1, full-length AR (Homo sapiens, UniProt P10275, T878A); experiment: AR fluorescent (eGFP) reporter assay in LN-ARR2PB-eGFP LNCaP cells; assay type: cell-based
T1 construct: against full length AR using an AR-eGFP transcription assay in LNCaP cells; endogenous in cells; host or cells: LNCaP (LN-ARR2PB-eGFP reporter line for A1; parental LNCaP for RIME)
T1 sequence (P10275 1-920 T878A): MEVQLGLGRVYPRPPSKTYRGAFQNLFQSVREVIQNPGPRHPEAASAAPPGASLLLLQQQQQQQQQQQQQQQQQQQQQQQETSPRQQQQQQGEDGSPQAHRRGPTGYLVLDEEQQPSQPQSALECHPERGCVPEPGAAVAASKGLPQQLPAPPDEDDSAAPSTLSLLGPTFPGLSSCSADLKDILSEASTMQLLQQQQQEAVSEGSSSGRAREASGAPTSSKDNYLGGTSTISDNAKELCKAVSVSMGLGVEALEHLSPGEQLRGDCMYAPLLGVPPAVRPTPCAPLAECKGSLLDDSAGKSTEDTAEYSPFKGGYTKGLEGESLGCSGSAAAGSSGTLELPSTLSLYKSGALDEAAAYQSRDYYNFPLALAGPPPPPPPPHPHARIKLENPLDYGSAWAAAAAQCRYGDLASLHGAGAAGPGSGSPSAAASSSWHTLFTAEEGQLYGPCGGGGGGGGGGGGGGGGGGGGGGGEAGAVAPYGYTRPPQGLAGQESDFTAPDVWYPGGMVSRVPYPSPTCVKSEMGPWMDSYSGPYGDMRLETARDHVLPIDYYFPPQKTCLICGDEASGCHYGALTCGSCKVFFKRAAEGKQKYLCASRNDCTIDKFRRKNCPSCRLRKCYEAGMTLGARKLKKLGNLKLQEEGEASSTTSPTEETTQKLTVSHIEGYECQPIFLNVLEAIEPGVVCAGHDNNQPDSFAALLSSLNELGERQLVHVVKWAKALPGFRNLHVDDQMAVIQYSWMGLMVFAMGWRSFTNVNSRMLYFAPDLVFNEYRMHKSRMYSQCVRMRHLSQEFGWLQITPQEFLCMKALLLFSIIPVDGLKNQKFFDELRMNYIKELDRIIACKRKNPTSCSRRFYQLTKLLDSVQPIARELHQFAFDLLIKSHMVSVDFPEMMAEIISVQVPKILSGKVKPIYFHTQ
Description: AR fluorescent reporter assay: Stably transfected eGFP-expressing LNCaP human prostate cancer cells (LN-ARR2PB-eGFP) containing an androgen-responsive probasin-derived promoter (ARR2PB) were assayed, as previously described.
Next, we tested the activity of VPC-220010 against full length AR using an AR-eGFP transcription assay in LNCaP cells. […] PSA is an AR-regulated serine protease and is widely used as a biomarker for PCa.

ARV7 = target: T2, ARV7 (Homo sapiens, UniProt P10275)
T2 sequence (P10275 1-644 isoform P10275-3): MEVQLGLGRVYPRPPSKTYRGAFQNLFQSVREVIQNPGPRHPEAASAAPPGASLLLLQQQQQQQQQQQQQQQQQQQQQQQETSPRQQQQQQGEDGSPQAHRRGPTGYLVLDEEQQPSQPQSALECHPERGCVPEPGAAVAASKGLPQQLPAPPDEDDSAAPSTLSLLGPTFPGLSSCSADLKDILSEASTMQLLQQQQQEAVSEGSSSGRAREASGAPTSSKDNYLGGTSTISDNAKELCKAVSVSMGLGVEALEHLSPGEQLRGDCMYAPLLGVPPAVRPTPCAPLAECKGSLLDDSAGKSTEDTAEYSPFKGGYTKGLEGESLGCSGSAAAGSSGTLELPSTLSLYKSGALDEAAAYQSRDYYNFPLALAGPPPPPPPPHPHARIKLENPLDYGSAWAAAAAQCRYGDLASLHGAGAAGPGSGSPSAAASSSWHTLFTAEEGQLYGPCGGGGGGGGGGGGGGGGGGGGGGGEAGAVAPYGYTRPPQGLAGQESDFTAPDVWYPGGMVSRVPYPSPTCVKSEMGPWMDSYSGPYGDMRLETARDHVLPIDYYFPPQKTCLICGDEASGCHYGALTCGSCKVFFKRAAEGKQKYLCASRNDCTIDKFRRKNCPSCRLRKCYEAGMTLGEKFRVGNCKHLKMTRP
Source text: The newly synthesized compounds were screened initially for their ability to inhibit ARV7 transcriptional activity using a cell based ARV7 transcriptional assay.

22Rv1 cells = experiment: Proliferation assay (PrestoBlue), 22Rv1; assay type: cell-based; details: Homo sapiens, 72 h, Figure 2D, read-out: IC50, viability of 22Rv1 cells
Description: (§1) Proliferation assay: LNCaP, 22Rv1 and PC3 cells were plated at 3000 cells per well in RPMI1640 containing 5% CSS in a 96-well plate, treated with 0.1 nm R1881 (a synthetic androgen) and test compounds (0–25 μM) for 72 h. Cell proliferation was determined using the PrestoBlue^TM cell proliferation assay following incubation with the compound […] over 72 h. In brief, 30 μL of the PrestoBlue^TM reagent was added to cells in each well of the 96-well plate containing 200 μL of media and incubated for 60 min at 37 °C in 5% CO2. The production of […]. Fluorescence measurement was read on a TECAN F200.
(§2) We then evaluated the effect of VPC-220010 on the proliferation of androgen-dependent LNCaP and ARV7-dependent 22Rv1 cells.

LNCaP cells = experiment: Proliferation assay (PrestoBlue), LNCaP; assay type: cell-based; details: Homo sapiens, 72 h, R1881, Figure 2C, read-out: IC50, viability of LNCaP cells
Description: as §1, §2

[2] = target: T3, progesterone receptor (PR) (Homo sapiens, UniProt P06401); experiment: Luciferase reporter transcription assay in PC3 cells, PR; details: progesterone stimulated; 20 uM; Figure 4
T3 sequence (P06401 1-933): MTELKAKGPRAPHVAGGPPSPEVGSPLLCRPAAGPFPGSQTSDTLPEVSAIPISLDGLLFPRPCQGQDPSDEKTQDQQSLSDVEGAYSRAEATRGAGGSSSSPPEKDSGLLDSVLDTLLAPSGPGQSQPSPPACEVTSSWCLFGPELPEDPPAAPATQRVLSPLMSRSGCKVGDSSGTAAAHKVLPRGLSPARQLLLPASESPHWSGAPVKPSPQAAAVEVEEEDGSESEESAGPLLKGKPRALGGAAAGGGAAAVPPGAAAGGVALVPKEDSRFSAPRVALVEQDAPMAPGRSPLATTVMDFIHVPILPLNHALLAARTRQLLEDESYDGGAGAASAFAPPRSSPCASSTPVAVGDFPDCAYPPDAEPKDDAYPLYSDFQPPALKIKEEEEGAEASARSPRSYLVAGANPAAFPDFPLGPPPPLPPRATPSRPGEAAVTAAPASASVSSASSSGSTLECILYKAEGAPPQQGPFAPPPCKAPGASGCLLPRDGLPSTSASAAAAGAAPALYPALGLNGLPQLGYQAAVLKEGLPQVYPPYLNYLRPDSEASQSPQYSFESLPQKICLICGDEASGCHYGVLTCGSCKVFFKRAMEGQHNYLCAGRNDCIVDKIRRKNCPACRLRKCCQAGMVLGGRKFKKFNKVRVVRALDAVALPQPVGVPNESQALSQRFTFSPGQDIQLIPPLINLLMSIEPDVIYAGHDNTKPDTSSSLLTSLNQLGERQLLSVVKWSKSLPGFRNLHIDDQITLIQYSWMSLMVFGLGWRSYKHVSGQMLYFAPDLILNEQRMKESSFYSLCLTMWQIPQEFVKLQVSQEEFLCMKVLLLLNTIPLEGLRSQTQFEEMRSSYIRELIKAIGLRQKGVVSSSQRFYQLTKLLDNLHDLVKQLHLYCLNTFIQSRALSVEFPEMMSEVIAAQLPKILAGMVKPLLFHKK

[3] = target: T4, glucocorticoid receptor (GR) (Homo sapiens, UniProt P04150); experiment: Luciferase reporter transcription assay in PC3 cells, GR; details: dexamethasone stimulated; 20 uM; Figure 4
T4 sequence (P04150 1-777): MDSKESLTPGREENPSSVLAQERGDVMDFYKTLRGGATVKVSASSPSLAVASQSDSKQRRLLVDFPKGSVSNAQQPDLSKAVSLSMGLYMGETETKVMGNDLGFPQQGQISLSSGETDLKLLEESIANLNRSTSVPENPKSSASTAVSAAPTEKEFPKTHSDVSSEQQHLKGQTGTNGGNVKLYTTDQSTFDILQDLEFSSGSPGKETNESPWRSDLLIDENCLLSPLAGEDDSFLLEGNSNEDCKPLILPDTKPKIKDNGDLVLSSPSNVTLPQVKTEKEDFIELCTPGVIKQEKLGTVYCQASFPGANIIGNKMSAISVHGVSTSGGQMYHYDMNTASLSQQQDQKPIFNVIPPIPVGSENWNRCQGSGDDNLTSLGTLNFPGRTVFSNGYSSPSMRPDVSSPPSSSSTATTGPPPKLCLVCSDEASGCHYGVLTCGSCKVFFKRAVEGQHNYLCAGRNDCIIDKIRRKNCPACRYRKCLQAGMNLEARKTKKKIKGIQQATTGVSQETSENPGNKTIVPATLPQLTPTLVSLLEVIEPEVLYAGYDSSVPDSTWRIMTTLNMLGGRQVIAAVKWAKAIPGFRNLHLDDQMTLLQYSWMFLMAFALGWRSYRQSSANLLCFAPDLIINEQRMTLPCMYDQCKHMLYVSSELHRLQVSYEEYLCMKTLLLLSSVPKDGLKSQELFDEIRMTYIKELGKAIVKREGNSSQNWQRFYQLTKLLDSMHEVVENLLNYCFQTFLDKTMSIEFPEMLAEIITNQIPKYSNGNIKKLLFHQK

| IC50 [1] [µM] | half-life (Microsomal stability; human, microsomes) [min] | IC50 (full-length AR; Table 1, read-out: eGFP IC50) [µM] | IC50 (ARV7) [µM] | activity against ARV7 (in words) (ARV7) | Compound | other results |
| --- | --- | --- | --- | --- | --- | --- |
| 0.7 | 11 | 0.7 | 5 | no difference in potency | O[C@@H](CCl)COc1cccc2c(OC[C@@H](O)CCl)cccc12 [RR-220010] | – |
| 0.6 | 12 | 0.7 | 6 | no difference in potency | O[C@H](CCl)COc1cccc2c(OC[C@H](O)CCl)cccc12 [SS-220010] | – |
| – | – | – | 8.8 | active against this truncated variant | OC(CCl)CNc1cccc2c(NCC(O)CCl)cccc12 (stereo not drawn) [VPC-2055] | IC50 (22Rv1 cells): > 50 µM; IC50 (full-length AR; LNCaP cells, read-out: IC50, full length AR, AR-eGFP transcription assay): 1 µM; IC50 (LNCaP cells): 11.8 µM |
| 4 | – | 3 | 4 | – | OC(CCl)COc1c(Br)ccc2c(OCC(O)CCl)c(Br)ccc12 (stereo not drawn) [VPC-220027] | – |
| 0.4 | – | 0.4 | 3 | – | OC(CCl)COc1ccc(Br)c2c(OCC(O)CCl)ccc(Br)c12 (stereo not drawn) [VPC-220028] | – |
| 5 | – | 5 | 3 | – | O=[N+]([O-])c1ccc2c(OCC(O)CCl)cccc2c1OCC(O)CCl (stereo not drawn) [VPC-220054] | – |
| 0.5 | 36 | 0.5 | 3 | – | OC(CCl)COc1ccc(Br)c2c(OCC(O)CCl)cccc12 (stereo not drawn) [VPC-220062] | – |
| 0.5 | 18 | 0.5 | 12 | – | OC(CCl)COc1ccc2cc(OCC(O)CCl)ccc2c1 (stereo not drawn) [VPC-220075] | – |
| – | – | – | – | – | CC#C[C@]1(O)CC[C@H]2[C@@H]3CCC4=CC(=O)CCC4=C3[C@@H](c3ccc(N(C)C)cc3)C[C@@]21C [mifepristone] | PR transcriptional reporter activity [2]: inhibited; GR transcriptional reporter activity [3]: inhibited |

| Compound | IC50 [1] [µM] | half-life (Microsomal stability; human, microsomes) [min] | IC50 (full-length AR; Table 1, read-out: eGFP IC50) [µM] | IC50 (ARV7) [µM] | activity against ARV7 (in words) (ARV7) | other results |
| --- | --- | --- | --- | --- | --- | --- |
| O=[N+]([O-])c1ccc(OCC(O)CCl)c2c([N+](=O)[O-])ccc(OCC(O)CCl)c12 (stereo not drawn) [VPC-220057] | 8 | – | 10 | 8 | – | half-life (Microsomal stability; microsomal stability, human microsomes, read-out: T1/2): 462 min; fold less potent than VPC-220010 (full-length AR; Table 1): 10 fold |
